Source: patent US12559529B2, “NPY2 receptor agonists” (Boehringer Ingelheim International GmbH, priority 2019, dated 2026)
Read-outs that look alike come from different tables or passages of the source.

How the values were obtained:
normal NMRI mice = test: Effect on acute food intake in normal NMRI mice; format: in vivo; details: male NMRI mice, 10 nmol/kg subcutaneously once
Method in brief: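 Male NMRI mice acclimatized in an HM-2 real-time food intake monitoring system, fasted 6 h before dark phase. Single subcutaneous dose of 10 nmol/kg peptide given 1 h before dark; n=7-8. Food intake expressed as % of vehicle group (50 mM phosphate pH7, 5% Mannitol).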

[1] = molecular target: T1, Human Neuropeptide Y2 Receptor (Homo sapiens, UniProt P49146); test: Radioligand binding competition assay (RLB); details: read-out: Ki
T1 construct: purchased CHEMICON HTS066M
T1 sequence (P49146 1-381): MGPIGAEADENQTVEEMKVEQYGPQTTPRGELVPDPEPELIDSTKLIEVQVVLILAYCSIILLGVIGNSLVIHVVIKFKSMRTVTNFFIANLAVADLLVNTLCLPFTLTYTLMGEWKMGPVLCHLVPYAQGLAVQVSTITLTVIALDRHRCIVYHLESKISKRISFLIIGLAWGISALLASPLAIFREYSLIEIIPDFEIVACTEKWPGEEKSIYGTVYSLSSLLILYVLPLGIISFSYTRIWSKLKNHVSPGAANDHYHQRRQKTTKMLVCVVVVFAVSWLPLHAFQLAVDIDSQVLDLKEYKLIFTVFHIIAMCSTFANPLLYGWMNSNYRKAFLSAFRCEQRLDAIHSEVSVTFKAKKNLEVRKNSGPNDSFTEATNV
Method in brief: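 Competition binding on human Y2 receptor membranes, 0.5 μg protein/well, in 50 mM HEPES, 5 mM MgCl2, 1 mM CaCl2, pH 7.4, 0.2% ovalbumin; peptides diluted from 1 mM DMSO stocks.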

[2] = Table 3, human 125I-PYY (1-36) 0.02 nM, Y2 receptor membranes

Q: Which “Acute Food Intake 24 h [% vehicle]” value (normal NMRI mice) does the source give for CC(C)CC(=O)N[C@@H](C)C(=O)N1CCC[C@H]1C(=O)N[C@@H](CCC(=O)O)C(=O)N[C@@H](CCCCNC(=O)COCCOCCNC(=O)COCCOCCNC(=O)CC[C@H](NC(=O)CCCCCCCCCCCCCCCCC(=O)O)C(=O)O)C(=O)N1CCC[C@H]1C(=O)N[C@@H](CCC(=O)O)C(=O)N[C@@H](CCC(=O)O)C(=O)N[C@@H](CC(=O)O)C(=O)N[C@@H](C)C(=O)N[C@@H](CO)C(=O)N1CCC[C@H]1C(=O)N[C@@H](CCC(=O)O)C(=O)N[C@@H](CCC(=O)O)C(=O)N[C@@H](CC(C)C)C(=O)N[C@@H](CCC(N)=O)C(=O)N[C@@H](CCC(N)=O)C(=O)N[C@@H](Cc1ccc(O)cc1)C(=O)N[C@@H](Cc1ccc(O)cc1)C(=O)N[C@H](C(=O)N[C@@H](CCC(=O)O)C(=O)N[C@@H](CC(C)C)C(=O)N[C@@H](CCCNC(=N)N)C(=O)N[C@@H](Cc1c[nH]cn1)C(=O)N[C@@H](Cc1ccc(O)cc1)C(=O)N[C@@H](Cc1ccc(O)cc1)C(=O)N[C@@H](CC(N)=O)C(=O)N[C@@H](Cc1c[nH]c2ccccc12)C(=O)N[C@@H](CC(C)C)C(=O)N[C@H](C(=O)N[C@@H](CCCNC(=N)N)C(=O)N[C@@H](CCC(N)=O)C(=O)N[C@@H](CCCNC(=N)N)C(=O)N[C@@H](Cc1ccc(O)cc1)C(N)=O)[C@@H](C)O)C(C)C [Compound 49, N{alpha-4}-(3-methylbutanoyl)-N{epsilon-7}-[2-(2-{2-[2-(2-{2-[(4S)-4-carboxy-4-(17-carboxyheptadecanamido)butanamido]ethoxy}ethoxy)acetamido]ethoxy}ethoxy)acetamido]-[4A,7K,9E,18Q,19Q,22V,23E,28Y,30W,31L]hPYY (4-36)] here?
A: 60 % vehicle

Q: What about the Ki [1, 2] of the same compound?
A: 0.89 nM

Q: Which results are given for CC(C)CC(=O)N[C@@H](C)C(=O)N1CCC[C@H]1C(=O)N[C@@H](CCC(=O)O)C(=O)N[C@@H](CCCCNC(=O)COCCOCCNC(=O)COCCOCCNC(=O)CC[C@H](NC(=O)CCCCCCCCCCCCCCCCC(=O)O)C(=O)O)C(=O)N1CCC[C@H]1C(=O)N[C@@H](CCC(=O)O)C(=O)N[C@@H](C)C(=O)N[C@@H](CC(=O)O)C(=O)N[C@@H](C)C(=O)N[C@@H](CCC(=O)O)C(=O)N1CCC[C@H]1C(=O)N[C@@H](CCC(=O)O)C(=O)N[C@@H](CCC(=O)O)C(=O)N[C@@H](CC(C)C)C(=O)N[C@@H](CCC(N)=O)C(=O)N[C@@H](CCCNC(=N)N)C(=O)N[C@@H](Cc1ccc(O)cc1)C(=O)N[C@@H](Cc1ccc(O)cc1)C(=O)N[C@H](C(=O)N[C@@H](CO)C(=O)N[C@@H](CC(C)C)C(=O)N[C@@H](CCCNC(=N)N)C(=O)N[C@@H](Cc1c[nH]cn1)C(=O)N[C@@H](Cc1ccc(O)cc1)C(=O)N[C@@H](Cc1ccc(O)cc1)C(=O)N[C@@H](CC(N)=O)C(=O)N[C@@H](Cc1c[nH]c2ccccc12)C(=O)N[C@@H](CC(C)C)C(=O)N[C@H](C(=O)N[C@@H](CCCNC(=N)N)C(=O)N[C@@H](CCC(N)=O)C(=O)N[C@@H](CCCNC(=N)N)C(=O)N[C@@H](Cc1ccc(O)cc1)C(N)=O)[C@@H](C)O)C(C)C [Compound 56, N{alpha-4}-(3-methylbutanoyl)-N{epsilon-7}-[2-(2-{2-[2-(2-{2-[(4S)-4-carboxy-4-(17-carboxyheptadecanamido)butanamido]ethoxy}ethoxy)acetamido]ethoxy}ethoxy)acetamido]-[4A,7K,9E,10A,13E,18Q,22V,28Y,30W,31L]hPYY (4-36)]?
A: Acute Food Intake 24 h [% vehicle] (normal NMRI mice): 53 % vehicle; Ki [1, 2]: 1.26 nM

Q: For CC(C)CC(=O)N[C@@H](C)C(=O)N1CCC[C@H]1C(=O)N[C@@H](CCC(=O)O)C(=O)N[C@@H](CCCCNC(=O)COCCOCCNC(=O)COCCOCCNC(=O)CC[C@H](NC(=O)CCCCCCCCCCCCCCCCC(=O)O)C(=O)O)C(=O)N1CCC[C@H]1C(=O)N[C@@H](CCC(=O)O)C(=O)N[C@@H](CCC(=O)O)C(=O)N[C@@H](CCC(=O)O)C(=O)N[C@@H](C)C(=O)N[C@@H](CO)C(=O)N[C@@H](CCC(=O)O)C(=O)N[C@@H](CCC(=O)O)C(=O)N[C@@H](CCC(=O)O)C(=O)N[C@@H](CC(C)C)C(=O)N[C@@H](CCC(N)=O)C(=O)N[C@@H](CCCNC(=N)N)C(=O)N[C@@H](Cc1ccc(O)cc1)C(=O)N[C@@H](Cc1ccc(O)cc1)C(=O)N[C@H](C(=O)N[C@@H](CO)C(=O)N[C@@H](CC(C)C)C(=O)N[C@@H](CCCNC(=N)N)C(=O)N[C@@H](Cc1c[nH]cn1)C(=O)N[C@@H](Cc1ccc(O)cc1)C(=O)N[C@@H](Cc1ccc(O)cc1)C(=O)N[C@@H](CC(N)=O)C(=O)N[C@@H](Cc1c[nH]c2ccccc12)C(=O)N[C@@H](CC(C)C)C(=O)N[C@H](C(=O)N[C@@H](CCCNC(=N)N)C(=O)N[C@@H](CCC(N)=O)C(=O)N[C@@H](CCCNC(=N)N)C(=O)N[C@@H](Cc1ccc(O)cc1)C(N)=O)[C@@H](C)O)C(C)C [Compound 79, N{alpha-4}-(3-methylbutanoyl)-N{epsilon-7}-[2-(2-{2-[2-(2-{2-[(4S)-4-carboxy-4-(17-carboxyheptadecanamido)butanamido]ethoxy}ethoxy)acetamido]ethoxy}ethoxy)acetamido]-[4A,7K,9E,11E,14E,18Q,22V,28Y,30W,31L]hPYY (4-36)], which “Acute Food Intake 24 h [% vehicle]” value (normal NMRI mice) is on record?
A: 75 % vehicle

Q: And the Ki [1]?
A: 4.52 nM

Q: Which “Acute Food Intake 24 h [% vehicle]” value (normal NMRI mice) does the source give for CC(C)CC(=O)N[C@@H](C)C(=O)N1CCC[C@H]1C(=O)N[C@@H](CCC(=O)O)C(=O)N[C@@H](CCCCNC(=O)COCCOCCNC(=O)COCCOCCNC(=O)CC[C@H](NC(=O)CCCCCCCCCCCCCCCCC(=O)O)C(=O)O)C(=O)N1CCC[C@H]1C(=O)N[C@@H](CCC(=O)O)C(=O)N[C@@H](CCC(=O)O)C(=O)N[C@@H](CC(=O)O)C(=O)N[C@@H](C)C(=O)N[C@@H](CO)C(=O)N1CCC[C@H]1C(=O)N[C@@H](CCC(=O)O)C(=O)N[C@@H](CCC(=O)O)C(=O)N[C@@H](CC(C)C)C(=O)N[C@@H](CCC(N)=O)C(=O)N[C@@H](CCCNC(=N)N)C(=O)N[C@@H](Cc1ccc(O)cc1)C(=O)N[C@@H](CCC(=O)O)C(=O)N[C@H](C(=O)N[C@@H](CO)C(=O)N[C@@H](CC(C)C)C(=O)N[C@@H](CCCNC(=N)N)C(=O)N[C@@H](Cc1c[nH]cn1)C(=O)N[C@@H](Cc1ccc(O)cc1)C(=O)N[C@@H](Cc1ccc(O)cc1)C(=O)N[C@@H](CC(N)=O)C(=O)N[C@@H](Cc1c[nH]c2ccccc12)C(=O)N[C@@H](CC(C)C)C(=O)N[C@H](C(=O)N[C@@H](CCCNC(=N)N)C(=O)N[C@@H](CCC(N)=O)C(=O)N[C@@H](CCCNC(=N)N)C(=O)N[C@@H](Cc1ccc(O)cc1)C(N)=O)[C@@H](C)O)C(C)C [Compound 90, N{alpha-4}-(3-methylbutanoyl)-N{epsilon-7}-[2-(2-{2-[2-(2-{2-[(4S)-4-carboxy-4-(17-carboxyheptadecanamido)butanamido]ethoxy}ethoxy)acetamido]ethoxy}ethoxy)acetamido]-[4A,7K,9E,18Q,21E,22V,28Y,30W,31L]hPYY (4-36)] here?
A: 70 % vehicle

Q: What about the Ki [1, 2] of the same compound?
A: 1.6 nM
